target: T1, FimH-CRD (Escherichia coli, UniProt P08191); experiment: Competitive binding assay by fluorescence polarization, assay 1 (compounds prepared by manual serial dilution)
T1 construct: The first 177 amino acids of the FimH protein; thrombin tag (printed as 'fusion protein with thrombin') (cleaved yes); made in house; host or cells: bacteria (pET21b plasmid)
Description: The first 177 amino acids of the FimH protein were expressed as a fusion protein with thrombin in a pET21b plasmid in bacteria. This FimH protein sequence contains the carbohydrate recognition domain (CRD) and shall be termed FimH-CRD. Following bacterial expression of the protein, the FimH-CRD protein was purified to homogeneity and the thrombin tag removed by protease cleavage. A competitive binding assay by fluorescence polarization was performed using 5 nM of the Alexa 647 mannoside probe and 60 nM of the FimH-CRD. The samples are assayed in a low volume 384 well microtiter plate in a final volume of 20 μl. The final assay buffer conditions are the following, 50 mM Tris-Cl, ph 7.0, 100 mM NaCl, 1 mM EDTA, 5 mM β-mercaptoethanol, 0.05% BSA and 2.5% DMSO. Two assays are performed for FimH, termed assay 1 or assay 2. The assay conditions are the same for both assays except the following: assay 1 has compounds prepared by manual dilution in a serial dilution factor with 12-point dose response while assay 2 has compounds prepared by a robotics system also through a serial dilution factor (12 point dose response) and initially prepared in duplicate in 384 well-Corning polypropylene round bottom plates. The assay 2 plates have compound which is then frozen and must be thawed prior to use. Initially the Alexa 647 probe and the FimH-CRD are added to the assay buffer and then 0.5 μl of test compound (assay 1 or 2) between 0.4 nM to 75 μM final concentration are added (12 point titration with 3-fold serial dilution). Control wells for the Alexa 647 probe are prepared with the same conditions except for the addition of the FimH-CRD protein. Plates are then incubated for 5 hrs at room temperature in the dark and under humid conditions to prevent drying. Plates are read using the SpectraMax Paradigm multi-mode plate reader and the appropriate fluorescent polarization detection cartridge (Alexa-647).
Alexa 647 mannoside probe is prepared using the similar procedure reported for FAM mannoside (Han, Z. et. al., 2010, J. Med. Chem., 53, 4779) and is described in the scheme below.
To a blue colored stirred solution of (2S,3S,4S,5S,6R)-2-(4-aminobutoxy)-6-(hydroxymethyl)tetrahydropyran-3,4,5-triol (2.21 mg, 0.009 mmol) and the (2E)-2-[(2E,4E)-5-[3,3-dimethyl-5-sulfonato-1-(3-sulfonatopropyl)indol-1-ium-2-yl]penta-2,4-dienylidene]-3-[6-(2,5-dioxopyrrolidin-1-yl)oxy-6-oxo-hexyl]-3-methyl-1-(3-sulfonatopropyl)indoline-5-sulfonate (Potassium Ion (3)) (4.9 mg, 0.0044 mmol) in DMF (44 μL) is added Et3N (5.4 mg, 7.0 μL, 0.053 mmol) at RT. The solution is stirred at room temperature over night, concentrated, dissolved in water and purified on 12 g C-18 silica gel cartridge on Isolera system using acetonitrile in water (0 to 40%, 10 CV) and followed by lyophilization to afford Alexa 647 mannoside probe (3.3 mg, 34%) as deep blue solid.
The Kd values of the compounds are determined from dose response curves using twelve concentrations per compound in duplicate. Curves are fitted to data points using Fluorescence Polarization competitive displacement analysis, and Kds are interpolated from the resulting curves using GraphPad Prism software, version […] (GraphPad software Inc., San Diego, Calif., USA).

T1 sequence (P08191 22-177): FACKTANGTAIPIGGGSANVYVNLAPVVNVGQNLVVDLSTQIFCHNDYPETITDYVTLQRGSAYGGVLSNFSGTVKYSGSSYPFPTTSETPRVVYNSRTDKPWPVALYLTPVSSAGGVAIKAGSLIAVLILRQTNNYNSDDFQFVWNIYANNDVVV

SMILES	IC50	Kd
OC[C@H]1O[C@H](O[C@@H]2[C@H](O)[C@@H](c3cccc(-c4cncnc4)c3)O[C@H](CO)[C@H]2O)[C@@H](O)[C@@H](O)[C@@H]1O [Compound 279, (2R,3S,4S,5S,6R)-2-[(2R,3R,4R,5R,6R)-3,5-Dihydroxy-2-(hydroxymethyl)-6-(3-pyrimidin-5-ylphenyl)tetrahydropyran-4-yl]oxy-6-(hydroxymethyl)tetrahydropyran-3,4,5-triol]	51 nM	9.9 ± 1.1 nM
O=C(Nc1ccc2ccccc2c1)c1cccc([C@H]2O[C@H](CO)[C@@H](O)[C@H](O)[C@@H]2O)c1 [Compound 32, N-(naphthalen-2-yl)-3-((2R,3S,4R,5S,6R)-3,4,5-trihydroxy-6-(hydroxymethyl)tetrahydro-2H-pyran-2-yl)benzamide]	45 nM	22.6 ± 18.7 nM
OC[C@H]1O[C@H](c2cccc(-c3ccc4c(c3)OCCO4)c2)[C@@H](O)[C@@H](O)[C@@H]1O [Compound 20, (2R,3S,4R,5S,6R)-2-(3-(2,3-dihydrobenzo[b][1,4]dioxin-6-yl)phenyl)-6-(hydroxymethyl)tetrahydro-2H-pyran-3,4,5-triol]	55 nM	7.1 ± 2.4 nM
CNC(=O)c1cccc(Oc2ccc([C@H]3O[C@H](CO)[C@@H](O)[C@H](O)[C@@H]3O)cc2)c1 [Compound 292, N-methyl-3-(4-((2R,3S,4R,5S,6R)-3,4,5-trihydroxy-6-(hydroxymethyl)tetrahydro-2H-pyran-2-yl)phenoxy)benzamide]		6 ± 0.4 nM
OC[C@H]1O[C@H](O[C@@H]2[C@H](O)[C@@H](c3cccc(OCC4CCCC4)c3)O[C@H](CO)[C@H]2O)[C@@H](O)[C@@H](O)[C@@H]1O [Compound 285, (2R,3S,4S,5S,6R)-2-[(2R,3R,4R,5R,6R)-2-[3-(Cyclopentylmethoxy)phenyl]-3,5-dihydroxy-6-(hydroxymethyl)tetrahydropyran-4-yl]oxy-6-(hydroxymethyl)-tetrahydropyran-3,4,5-triol]	80 nM	14.7 ± 1.2 nM
COC(=O)Cc1ccc(Oc2ccc([C@H]3O[C@H](CO)[C@@H](O)[C@H](O)[C@@H]3O)cc2)cc1 [Compound 55, methyl 2-(4-(4-((2R,3S,4R,5S,6R)-3,4,5-trihydroxy-6-(hydroxymethyl)tetrahydro-2H-pyran-2-yl)phenoxy)phenyl)acetate]	35 nM	6.3 ± 0.4 nM
OC[C@H]1O[C@H](c2cccc(-c3cccnc3)c2)[C@@H](O)[C@@H](O)[C@@H]1O [Compound 9, (2R,3S,4R,5S,6R)-2-(hydroxymethyl)-6-[3-(3-pyridyl)phenyl]tetrahydropyran-3,4,5-triol]	163 nM	28.5 ± 23.7 nM
CNC(=O)COc1cccc([C@H]2O[C@H](CO)[C@@H](O)[C@H](O[C@H]3O[C@H](CO)[C@@H](O)[C@H](O)[C@@H]3O)[C@@H]2O)c1 [Compound 288, 2-[3-[(2R,3R,4R,5R,6R)-3,5-dihydroxy-6-(hydroxymethyl)-4-[(2R,3S,4S,5S,6R)-3,4,5-trihydroxy-6-(hydroxymethyl)tetrahydropyran-2-yl]oxy-tetrahydropyran-2-yl]phenoxy]-N-methyl-acetamide]	46 nM	28.7 ± 25.6 nM
CN(C)c1ccc(NC(=O)Oc2cccc([C@H]3O[C@H](CO)[C@@H](O)[C@H](O)[C@@H]3O)c2)cc1 [Compound 71, 3-((2R,3S,4R,5S,6R)-3,4,5-trihydroxy-6-(hydroxymethyl)tetrahydro-2H-pyran-2-yl)phenyl (4-(dimethylamino)phenyl)carbamate]	67 nM	14.6 ± 2.3 nM
CNC(=O)c1cc(C(=O)NC)cc(-c2cccc([C@H]3O[C@H](CO)[C@@H](O)[C@H](O[C@H]4O[C@H](CO)[C@@H](O)[C@H](O)[C@@H]4O)[C@@H]3O)c2)c1 [Compound 277, 5-[3-[(2R,3R,4R,5R,6R)-3,5-Dihydroxy-6-(hydroxymethyl)-4-[(2R,3S,4S,5S,6R)-3,4,5-trihydroxy-6-(hydroxymethyl)tetrahydropyran-2-yl]oxy-tetrahydropyran-2-yl]phenyl]-N1,N3-dimethyl-benzene-1,3-dicarboxamide]	47 nM	10.7 ± 3.9 nM
O=C(NC1CC1)c1cccc([C@H]2O[C@H](CO)[C@@H](O)[C@H](O)[C@@H]2O)c1 [Compound 36, N-cyclopropyl-3-((2R,3S,4R,5S,6R)-3,4,5-trihydroxy-6-(hydroxymethyl)tetrahydro-2H-pyran-2-yl)benzamide]	168 nM	53.2 ± 6.5 nM
CNC(=O)c1cccc(COc2ccc(C3O[C@H](CO)[C@@H](O)[C@H](O)[C@@H]3O)cc2)c1 (some centres unmarked) [Compound 248]		14 ± 8.4 nM
OC[C@H]1O[C@H](O[C@H]2[C@H](O)[C@@H](CO)O[C@H](C/C=C/C3CCCCC3)[C@H]2O)[C@@H](O)[C@@H](O)[C@@H]1O [Compound 282, (2R,3S,4S,5S,6R)-2-[(2R,3R,4R,5R,6R)-2-[(E)-3-Cyclohexylallyl]-3,5-dihydroxy-6-(hydroxymethyl)tetrahydropyran-4-yl]oxy-6-(hydroxymethyl)tetrahydropyran-3,4,5-triol]	212 nM	40.6 ± 0.03 nM
O=C(Nc1ccccc1)c1cccc([C@H]2O[C@H](CO)[C@@H](O)[C@H](O)[C@@H]2O)c1 [Compound 23, N-phenyl-3-[(2R,3S,4R,5S,6R)-3,4,5-trihydroxy-6-(hydroxymethyl)tetrahydropyran-2-yl]benzamide]	16 nM	38.4 ± 23.6 nM
Cc1nnc(-c2ccc(C#Cc3ccc([C@H]4O[C@H](CO)[C@@H](O)[C@H](O)[C@@H]4O)cc3)cc2)o1 [Compound 134, (2R,3S,4R,5S,6R)-2-(hydroxymethyl)-6-[4-[2-[4-(5-methyl-1,3,4-oxadiazol-2-yl)phenyl]ethynyl]phenyl]tetrahydropyran-3,4,5-triol]		54.2 ± 17 nM
O=C(Nc1ccc(F)cc1)Oc1cccc([C@H]2O[C@H](CO)[C@@H](O)[C@H](O)[C@@H]2O)c1 [Compound 70, 3-((2R,3S,4R,5S,6R)-3,4,5-trihydroxy-6-(hydroxymethyl)tetrahydro-2H-pyran-2-yl)phenyl (4-fluorophenyl)carbamate]	46 nM	11.6 ± 4.2 nM
Cc1cc(C)cc(Oc2cccc([C@H]3O[C@H](CO)[C@@H](O)[C@H](O)[C@@H]3O)c2)c1 [Compound 58, (2R,3S,4R,5S,6R)-2-[3-(3,5-dimethylphenoxy)phenyl]-6-(hydroxymethyl)tetrahydropyran-3,4,5-triol]	66 nM	11.1 ± 1.6 nM
CNC(=O)c1cccc(Oc2cccc([C@H]3O[C@H](CO)[C@@H](O)[C@H](O)[C@@H]3O)c2)c1 [Compound 5, N-methyl-3-[3-[(2R,3S,4R,5S,6R)-3,4,5-trihydroxy-6-(hydroxymethyl)tetrahydropyran-2-yl]phenoxy]benzamide]	18 nM	< 5 nM
OC[C@H]1O[C@H](c2cccc(-c3ccc4cc(O)ccc4c3)c2)[C@@H](O)[C@@H](O)[C@@H]1O [Compound 17, (2R,3S,4R,5S,6R)-2-(hydroxymethyl)-6-[3-(6-hydroxy-2-naphthyl)phenyl]tetrahydropyran-3,4,5-triol]	48 nM	8.6 ± 2.5 nM
CNC(=O)c1ccc(-c2cccc([C@H]3O[C@H](CO)[C@@H](O)[C@H](O[C@H]4O[C@H](CO)[C@@H](O)[C@H](O)[C@@H]4O)[C@@H]3O)c2)cc1 [Compound 275, 4-[3-[(2R,3R,4R,5R,6R)-3,5-Dihydroxy-6-(hydroxymethyl)-4-[(2R,3S,4S,5S,6R)-3,4,5-trihydroxy-6-(hydroxymethyl)tetrahydropyran-2-yl]oxy-tetrahydropyran-2-yl]phenyl]-N-methyl-benzamide]	28 nM	26.8 ± 15.4 nM
COc1ccc([C@H]2O[C@H](CO)[C@@H](O)[C@H](O)[C@@H]2O)cc1-c1ccc(-c2nnc(C)o2)cc1 [Compound 132, (2R,3S,4R,5S,6R)-2-(hydroxymethyl)-6-[4-methoxy-3-[4-(5-methyl-1,3,4-oxadiazol-2-yl)phenyl]phenyl]tetrahydropyran-3,4,5-triol]		6.9 ± 0.02 nM

— patent US20130261077A1 (priority 2012, published 2013)
